# Measured values taken from patent publication EP4556465A1, “NOVEL BICYCLIC PD-L1 INHIBITORS, PREPARATION METHODS THEREFOR AND MEDICINAL USES THEREOF” (priority 2022, dated 2024).
# Key:
# [1] = molecular target: T1, hPD-1/hPD-L1 (Homo sapiens, UniProt Q9NZQ7); assay: PD-1/PD-L1 binding assay kit (CISBIO), HTRF assay of PD-1/PD-L1 protein-protein interaction; conditions: for inhibitory activity of PD-1/PD-L1 protein-protein interaction compared with BMS-202: HTRF, comparison with BMS-202
# T1 construct: purchased CISBIO
# T1 sequence (Q9NZQ7 19-238 limits assumed): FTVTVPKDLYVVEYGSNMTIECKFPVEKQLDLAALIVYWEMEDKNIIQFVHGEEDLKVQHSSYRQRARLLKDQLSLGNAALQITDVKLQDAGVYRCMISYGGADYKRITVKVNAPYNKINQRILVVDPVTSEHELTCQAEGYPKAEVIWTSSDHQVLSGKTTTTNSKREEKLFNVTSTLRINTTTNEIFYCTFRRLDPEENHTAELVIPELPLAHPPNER
# Protocol: Experimental objective: the activity of the compounds of formula (I) to inhibit the PD-1/PD-L1 interaction was tested by using a PD-1/PD-L1 binding assay kit (CISBIO).
# Experimental principle: HTRF (Homogeneous Time-Resolved Fluorescence) is a technique used to detect substances to be tested in pure liquid phase systems. It primarily utilizes energy transfer of two fluorescent groups, which are divided into an energy donor europium (Eu^+) and an energy acceptor. When the donor is externally excited (e.g., a flash lamp or laser), the energy can be resonantly transferred to the acceptor if the donor is close enough to the acceptor, and the acceptor is excited at a specific wavelength. By using the HTRF technology, the assay enables simple and rapid characterization of compounds and antibody blockers in a high-throughput format. By using anti-Tag1 labeled with Eu^+ (Europium) (the HTRF energy donor) and anti-Tag2 labeled with XL665 (the HTRF energy acceptor), the interaction between PD-L1 and PD-1 can be detected. PD-L1 protein and PD-1 protein are labeled with Tag1 and Tag2, respectively, and Eu^+ and XL665 bind to PD-L1 and PD-1, respectively, through antibodies to form complexes. […] This specific signal is directly proportional to the degree of PD1/PD-L1 interaction.
# Experimental materials: kit: PD-1/PD-L1 binding assay kits purchased from CISBIO; and 96-well plate: purchased from CISBIO.
# Test instrument: Perkin Elmer, model: EnVision.
# Test compounds: the compounds in formula (I).
# Experimental procedure: PD-1/PD-L1 binding assay kits were used. […] The plates were sealed by using microplate sealers, centrifuging was performed at 1000 rpm for 1 min, and incubation was performed at room temperature for 15 min. The Anti-Tag-Eu^3+ and Anti-tag-XL665 which were diluted with Buffer were then mixed in equal volumes, then 10 µL of the mixed solution was added to each well, the sealed plates were centrifuged at 1000 rpm for 1 min, and incubation was performed at room temperature for 2 h. […] IC50 of the compounds was calculated by using Graphpad.
# [2] = Acute toxicity test, single oral gavage; format: in vivo; conditions: both sexes, rat, in vivo, po, SD rats, read-out: maximum tolerated dose (MTD)
# Protocol: • Animal species and number: SD rats; 6 rats in each group (half male and half female); Mode of administration: oral gavage; […]; • Administration frequency: administration once.
# Side-cage observation on the day of administration (D1): frequency and time of observation: side-cage observation of acute toxicity reactions was performed for 4 h after administration of animals in each group, and detailed clinical observations were performed on animals with apparent abnormal manifestations. Mortality, morbidity, respiration, secretion, feces, and diet, water drinking, etc. were observed, and changes in body weight of rats during administration were recorded. Detailed clinical observations include, but are not limited to, behavioral activities, skin, hair, eyes, ears, noses, abdomens, external genitalia, anuses, limbs, feet, and breathing. The animals in each group were euthanized at the end of the observation period, and all animals were dissected and gross observed.
Structure (SMILES),IC50 [1] [µM],inhibitory activity of PD-1/PD-L1 protein-protein interaction compared with BMS-202 [1],MTD [2] [mg/kg]
"Cc1c(-c2ccc3c(c2)CN(CC(=O)O)C3=O)cccc1-c1ccccc1F [I-A-4, 2-(5-(2'-Fluoro-2-methyl-[1,1'-biphenyl]-3-yl)-1-oxoisoindolin-2-yl)acetic acid]",> 1,,
"Cc1c(-c2ccc3c(c2)CN(CCC(=O)O)C3=O)cccc1-c1ccccc1F [I-A-5, 3-(5-(2'-Fluoro-2-methyl-[1,1'-biphenyl]-3-yl)-1-oxoisoindolin-2-yl)propanoic acid]",> 1,,
"Cc1c(-c2ccc3c(c2)CN(C(C)C(=O)O)C3=O)cccc1-c1ccccc1F (stereo not shown) [I-A-6, 2-(5-(2'-Fluoro-2-methyl-[1,1'-biphenyl]-3-yl)-1-oxoisoindolin-2-yl)propanoic acid]",> 1,,
"Cc1c(-c2ccc3c(c2)CN(CCO)C3=O)cccc1-c1ccccc1F [I-A-7, 5-(2'-Fluoro-2-methyl-[1,1'-biphenyl]-3-yl)-2-(2-hydroxyethyl)isoindo 1-1-one]",0.07 to 1,,
"Cc1c(-c2ccc3c(c2)CN(CC(N)=O)C3=O)cccc1-c1ccccc1F [I-A-8, 2-(5-(2'-Fluoro-2-methyl-[1,1'-biphenyl]-3-yl)-1-oxoisoindolin-2-yl)acetamide]",0.07 to 1,,
"Cc1c(-c2ccc3c(c2)CN(CCO)C3)cccc1-c1ccccc1F [I-A-9, 2-(5-(2'-Fluoro-2-methyl-[1,1'-biphenyl]-3-yl)isoindolin-2-yl)ethan-1-ol]",0.011,superior to that of the compound BMS-202,
"Cc1c(-c2ccc3c(n2)CCN(CC(=O)O)C3)cccc1-c1ccccc1F [I-B-2, 2-(2-(2'-Fluoro-2-methyl-[1,1'-biphenyl]-3-yl)-7,8-dihydro-1,6-naphthyridin-6(5H)-yl)acetic acid]",0.019,superior to that of the compound BMS-202,
"Cc1c(-c2ccc3c(n2)CCN(CCO)C3)cccc1-c1ccccc1F [I-B-3, 2-(2-(2'-Fluoro-2-methyl-[1,1'-biphenyl]-3-yl)-7,8-dihydro-1,6-naphthyridin-6(5H)-yl)ethan-1-ol]",0.07 to 1,,
"Cc1c(COc2ccc3c(n2)CCN(CC(=O)O)C3)cccc1-c1ccccc1F [I-D-13, 2-(2-((2'-fluoro-2-methyl-[1,1'-biphenyl]-3-yl)methoxy)-7,8-dihydro-1,6-naphthyridin-6(5H)-yl)acetic acid]",0.023,superior to that of the compound BMS-202,
"Cc1c(COc2ccc3c(n2)CCN(CCO)C3)cccc1-c1ccccc1F [I-D-14, 2-(2-((2'-fluoro-2-methyl-[1,1'-biphenyl]-3-yl)methoxy)-7,8-dihydro-1,6-naphthyridin-6(5H)-yl)ethan-1-ol]",0.0158,superior to that of the compound BMS-202,
"Cc1ccccc1-c1cccc(COc2ccc3c(n2)CCN(CCO)C3)c1C [I-D-15, 2-(2-((2,2'-dimethyl-[1,1'-biphenyl]-3-yl)methoxy)-7,8-dihydro-1,6-naphthyridin-6(5H)-yl)ethan-1-ol]",0.07 to 1,,
"Cc1c(COc2ccc3c(n2)CCN(CCO)C3)cccc1-c1ccccc1Cl [I-D-16, 2-(2-((2'-chloro-2-methyl-[1,1'-biphenyl]-3-yl)methoxy)-7,8-dihydro-1,6-naphthyridin-6(5H)-yl)ethan-1-ol]",0.07 to 1,,
"Cc1c(COc2ccc3c(n2)CCN(CCO)C3)cccc1-c1ccccc1 [I-D-17, 2-(2-((2-methyl-[1,1'-biphenyl]-3-yl)methoxy)-7,8-dihydro-1,6-naphthyridin-6(5H)-yl)ethan-1-ol]",0.07 to 1,,
"Cc1ccccc1-c1cccc(COc2ccc3c(n2)CCN(CCO)C3)c1Cl [I-D-19, 2-(2-((2-chloro-2'-methyl-[1,1'-biphenyl]-3-yl)methoxy)-7,8-dihydro-1,6-naphthyridin-6(5H)-yl)ethan-1-ol]",0.0201,superior to that of the compound BMS-202,
"OCCN1CCc2nc(OCc3cccc(-c4ccccc4Cl)c3Cl)ccc2C1 [I-D-20, 2-(2-((2,2'-dichloro-[1,1'-biphenyl]-3-yl)methoxy)-7,8-dihydro-1,6-naphthyridin-6(5H)-yl)ethan-1-ol]",0.07 to 1,,
"OCCN1CCc2nc(OCc3cccc(-c4ccccc4)c3Cl)ccc2C1 [I-D-21, 2-(2-((2-chloro-[1,1'-biphenyl]-3-yl)methoxy)-7,8-dihydro-1,6-naphthyridin-6(5H)-yl)ethan-1-ol]",0.0311,superior to that of the compound BMS-202,
"OCCN1CCc2nc(OCc3cccc(-c4ccccc4F)c3F)ccc2C1 [I-D-22, 2-(2-((2,2'-difluoro-[1,1'-biphenyl]-3-yl)methoxy)-7,8-dihydro-1,6-naphthyridin-6(5H)-yl)ethan-1-ol]",0.0105,superior to that of the compound BMS-202,
"Cc1ccccc1-c1cccc(COc2ccc3c(n2)CCN(CCO)C3)c1F [I-D-23, 2-(2-((2-fluoro-2'-methyl-[1,1'-biphenyl]-3-yl)methoxy)-7,8-dihydro-1,6-naphthyridin-6(5H)-yl)ethan-1-ol]",0.07 to 1,,
"OCCN1CCc2nc(OCc3cccc(-c4ccccc4Cl)c3F)ccc2C1 [I-D-24, 2-(2-((2'-chloro-2-fluoro-[1,1'-biphenyl]-3-yl)methoxy)-7,8-dihydro-1,6-naphthyridin-6(5H)-yl)ethan-1-ol]",0.07 to 1,,≥ 2000
"OCCN1CCc2nc(OCc3cccc(-c4ccccc4)c3F)ccc2C1 [I-D-25, 2-(2-((2-fluoro-[1,1'-biphenyl]-3-yl)methoxy)-7,8-dihydro-1,6-naphthyridin-6(5H)-yl)ethan-1-ol]",0.07 to 1,,
"O=CCN1CCc2nc(OCc3cccc(-c4ccccc4F)c3Cl)ccc2C1 [I-D-28, 2-(2-((2-chloro-2'-fluoro-[1,1'-biphenyl]-3-yl)methoxy)-7,8-dihydro-1,6-naphthyridin-6(5H)-yl)acetaldehyde]",0.0242,superior to that of the compound BMS-202,
"O=C(O)CN1CCc2nc(OCc3cccc(-c4ccccc4F)c3)ccc2C1 [I-D-30, 2-(2-((2'-fluoro-[1,1'-biphenyl]-3-yl)methoxy)-7,8-dihydro-1,6-naphthyridin-6(5H)-yl)acetic acid]",0.0134,superior to that of the compound BMS-202,
"Cc1c(COc2ccc3c(n2)N(C)CN(CC(=O)O)C3)cccc1-c1cccc(OCCCN2CC[C@@H](O)C2)c1C [I-E-4, (R)-2-(7-((3'-(3-(3-hydroxypyrrolidin-1-yl)propoxy)-2,2'-dimethyl-[1,1'-biphenyl]-3-yl)methoxy)-1-methyl-1,4-dihydropyrido[2,3-d]pyrimidin-3(2H)-yl)acetic acid]",0.0585,superior to that of the compound BMS-202,
